In patent US12344610B2, “APOL1 inhibitors and methods of use” (Maze Therapeutics, Inc., priority 2022, dated 2025):

The compounds below were run on human immortalized podocytes inducibly expressing APOL1 G2 (assay: APOL1 G2 podocyte cell rescue assay (Example B4)). Details: Homo sapiens, differentiated human podocytes, doxycycline-induced APOL1 G2, CellTiter-Glo; geometric mean of at least 2 runs; † = single run.
Type: cell-based
Procedure: APOL1 G2 human immortalized podocyte viability assay for measurement of cytotoxicity reversal by compound (APOL1 G2 podocyte cell rescue assay).
Cell Handling. The hTERT-immortalized kidney podocyte cell line was procured from the laboratory of Dr. Moin Saleem at the University of Bristol, UK (Nephrology 17 (2012) 525-531; doi:10.1111/j.1440-1797.2012.01619.x; herein incorporated by reference in its entirety). Parental and engineered cell lines were cultured in RPMI 1640 media (Gibco, 11875093) with 10% Tet System Approved FBS (Takara, 631101). The engineered cell line was maintained under selection (2.5 μg/mL puromycin). Cell lines were maintained and engineered at 33° C. Cell cultures were transferred to 37° C. for 10 to 14 days to initiate differentiation (Nephrology 17 (2012) 525-531; doi:10.1111/j.1440-1797.2012.01619.x; herein incorporated by reference in its entirety). During this time, media was refreshed every 3 days. After differentiation, cells engineered to inducibly express APOL1 G2 were used in the podocyte cell rescue assay.
Cell Line Engineering. The APOL1 G2 coding sequence was cloned into the pLVX-TetOne-Puro vector and verified by sequencing (Genscript Biotech). This construct was designed to have a C-terminal HiBiT tag. Lentiviral packaging of the vector was conducted using the Lenti-X Packaging Single Shots (VSVG) system according to manufacturer instructions (Takara Bio, 631275). A stable cell line was generated by transfecting the parental podocyte cell line with the concentrated virus in media with 5 μg/mL polybrene (Sigma, TR-1003-G). Media was changed the following day. 72 hours post transfection, 2.5 μg/mL puromycin (Gibco, A1113803) was added to the cells and cells were maintained in selection media thereafter. This APOL1 G2 stable cellular pool was subjected to a stringent limiting dilution to generate a pure stable clone (Podocyte/pLVX-TetOne APOL1 G2/clone D10) capable of inducible expression of APOL1 G2.
Assay Setup. T175 flasks containing differentiated podocytes engineered to inducibly express APOL1 G2 (Podocyte/pLVX-TetOne APOL1 G2/clone D10) were washed once with 15 mL of DPBS (Thermo Fisher, 14190-144). These flasks were each trypsinized with 3 mL of prewarmed TrypLE Express (Gibco, 12605-010) and incubated at 37° C. with 5% CO2 until cells detached and neutralized with 7 mL of prewarmed assay media (RPMI 1640 media with 10% Tet System Approved FBS, no selection agent). Cells were pooled and the resulting suspension was gently mixed. The cell suspension was counted using a Countess Cell Counting Chamber (Invitrogen) and the cell concentration was adjusted to 240,000 cells/mL using assay media. Next, 25 μL of a 480 ng/mL working stock of doxycycline diluted in assay media was added to an assay ready plate. All experiments were performed in 384-well, white, solid bottom, tissue culture treated plates (Greiner, 781080). The assay ready compound plates were generated with duplicate 8-point compound dilution series that consisted of 3-fold stepwise dilutions (0.4% DMSO final). The plates were centrifuged at 1000 rpm for 1 minute. 25 μL of diluted cell suspension (final cell density=6,000 cells/well) was added to each well. The plates were centrifuged again at 1000 rpm for 1 minute and then incubated in a humidified incubator (37° C. with 5% CO2). After 95 hours, the assay plates were removed from the incubator and allowed to equilibrate to room temperature for 1 hour. CellTiter-Glo® reagent (Promega, G7570) was prepared according to the manufacturer's instructions. 25 μL of CellTiter-Glo® reagent was added to each well. Assay plates were sealed with foil and mixed for 5 minutes on an orbital shaker (500 rpm) to induce cell lysis. Plates were centrifuged at 1000 rpm for 1 minute. 10 minutes after CellTiter-Glo® reagent addition, an Envision plate reader (Perkin Elmer) was used to measure the luminescent signal of each assay plate. Collaborative Drug Discovery software was utilized for graphing data. […]
Work on `O=C1Nc2ccc(Cl)cc2C12CCN(CCOc1cnc3c(N4CC(O)C4)nccc3c1)CC2` [Compound 314, 5-chloro-1′-(2-{[8-(3-hydroxyazetidin-1-yl)-1,7-naphthyridin-3-yl]oxy}ethyl)-1,2-dihydrospiro[indole-3,4′-piperidin]-2-one] yielded an EC50 of 4.57 nM. With `CN1C(=O)C2(CCN(CCOc3cc(F)c(C(=O)N4CCS(=O)(=O)CC4)c(F)c3)CC2)c2cc(C#N)ccc21` [Compound 260, 1′-{2-[4-(1,1-dioxo-1λ^6-thiomorpholine-4-carbonyl)-3,5-difluorophenoxy]ethyl}-1-methyl-2-oxo-1,2-dihydrospiro[indole-3,4′-piperidine]-5-carbonitrile] the EC50 was 10.3 nM. With `C[C@]1(O)C[C@H](N2C(=O)CCc3cc(OCCN4CCC5(CC4)C(=O)Nc4ccc(Cl)cc45)cnc32)C1` (single isomer, unassigned) [Compound 307, 5-chloro-1′-[2-({7-oxo-8-[(trans)-3-hydroxy-3-methylcyclobutyl]-5,6,7,8-tetrahydro-1,8-naphthyridin-3-yl}oxy)ethyl]-1,2-dihydrospiro[indole-3,4′-piperidin]-2-one] the EC50 was 2.61 nM. Work on `O=C(c1ccc(OCCN2CCC3(CC2)C(=O)Nc2ccc(Cl)cc23)cc1F)N1CCS(=O)(=O)CC1` [Compound 232, 4-[4-(2-{5-chloro-2-oxo-1,2-dihydrospiro[indole-3,4′-piperidin]-1′-yl}ethoxy)-2-fluorobenzoyl]-1λ^6-thiomorpholine-1,1-dione] yielded an EC50 of 2.17 nM. `CC1(O)CN(c2nccc3cc(OCCN4CCC5(CC4)C(=O)Nc4ccc(Cl)cc45)cnc23)C1` [Compound 306, 5-chloro-1′-(2-{[8-(3-hydroxy-3-methylazetidin-1-yl)-1,7-naphthyridin-3-yl]oxy}ethyl)-1,2-dihydrospiro[indole-3,4′-piperidin]-2-one] was tested, and the EC50 was 1.94 nM. With `CC1(O)CN(c2ncc(OCCN3CCC4(CC3)C(=O)Nc3ccc(Cl)cc34)cn2)C1` [Compound 300, 5-chloro-1′-(2-{[2-(3-hydroxy-3-methylazetidin-1-yl)pyrimidin-5-yl]oxy}ethyl)-1,2-dihydrospiro[indole-3,4′-piperidin]-2-one] the EC50 was 33.3 nM. `CC(C)(O)c1ncc(OCCN2CCC3(CC2)C(=O)Nc2ccc(Cl)cc23)cn1` [Compound 305, 5-chloro-1′-(2-{[2-(2-hydroxypropan-2-yl)pyrimidin-5-yl]oxy}ethyl)-1,2-dihydrospiro[indole-3,4′-piperidin]-2-one] was tested, and the EC50 was 15 nM. `O=C(c1ccc(OCCN2CCC3(CC2)C(=O)Nc2ccc(Cl)cc23)cc1C(F)(F)F)N1CCS(=O)(=O)CC1` [Compound 272, 4-[4-(2-{5-chloro-2-oxo-1,2-dihydrospiro[indole-3,4′-piperidin]-1′-yl}ethoxy)-2-(trifluoromethyl)benzoyl]-1λ^6-thiomorpholine-1,1-dione] was tested, and the EC50 was 1 nM. `O=C1Nc2ccc(Cl)cc2C12CCN(CCOc1cnc(N3CC(O)C3)nc1)CC2` [Compound 301, 5-chloro-1′-(2-{[2-(3-hydroxyazetidin-1-yl)pyrimidin-5-yl]oxy}ethyl)-1,2-dihydrospiro[indole-3,4′-piperidin]-2-one] was tested, and the EC50 was 66.9 nM. With `CC[C@]1(O)C[C@H](N2C(=O)CCc3cc(OCCN4CCC5(CC4)C(=O)Nc4ccc(Cl)cc45)cnc32)C1` (single isomer, unassigned) [Compound 290, 5-chloro-1′-[2-({7-oxo-8-[(trans)-3-ethyl-3-hydroxycyclobutyl]-5,6,7,8-tetrahydro-1,8-naphthyridin-3-yl}oxy)ethyl]-1,2-dihydrospiro[indole-3,4′-piperidin]-2-one] the EC50 was 2.76 nM. With `CS(=O)(=O)C1(c2ncc(OCCN3CCC4(CC3)C(=O)Nc3ccc(Cl)cc34)cn2)COC1` [Compound 276, 5-chloro-1′-(2-{[2-(3-methanesulfonyloxetan-3-yl)pyrimidin-5-yl]oxy}ethyl)-1,2-dihydrospiro[indole-3,4′-piperidin]-2-one] the EC50 was 10.4 nM. `CS(=O)(=O)N1CC2(CN(C(=O)c3ccc(OCCN4CCC5(CC4)C(=O)Nc4ccc(Cl)cc45)cc3F)C2)C1` [Compound 273, 5-chloro-1′-[2-(3-fluoro-4-{6-methanesulfonyl-2,6-diazaspiro[3.3]heptane-2-carbonyl}phenoxy)ethyl]-1,2-dihydrospiro[indole-3,4′-piperidin]-2-one] gave an EC50 of 5.2 nM. `CC(O)c1ncc(OCCN2CCC3(CC2)C(=O)Nc2ccc(C(F)F)cc23)cc1C(F)(F)F` (single isomer, unassigned) [Compound 287, 5-(difluoromethyl)-1′-[2-({6-[(1S) or (1R)-1-hydroxyethyl]-5-(trifluoromethyl)pyridin-3-yl}oxy)ethyl]-1,2-dihydrospiro[indole-3,4′-piperidin]-2-one] gave an EC50 of 17.7 nM. Work on `CC(O)c1ncc(OCCN2CCC3(CC2)C(=O)Nc2ccc(Cl)cc23)cn1` (centres unmarked) [Compound 284, 5-chloro-1′-(2-{[2-(1-hydroxyethyl)pyrimidin-5-yl]oxy}ethyl)-1,2-dihydrospiro[indole-3,4′-piperidin]-2-one] yielded an EC50 of 105 nM. In the case of `CS(=O)(=O)c1ccc(OCCN2CCC3(CC2)C(=O)N(CCO)c2ccc(Br)cc23)cc1` [Compound 24, 5-bromo-1-(2-hydroxyethyl)-1′-[2-(4-methanesulfonylphenoxy)ethyl]-1,2-dihydrospiro[indole-3,4′-piperidin]-2-one], the EC50 is reported as 37.4 nM. Work on `O=C(c1ccc(OCCN2CCC3(CC2)C(=O)Nc2ccc(Cl)cc23)cc1F)N1CC2(C1)CS(=O)(=O)C2` [Compound 239, 6-[4-(2-{5-chloro-2-oxo-1,2-dihydrospiro[indole-3,4′-piperidin]-1′-yl}ethoxy)-2-fluorobenzoyl]-2λ^6-thia-6-azaspiro[3.3]heptane-2,2-dione] yielded an EC50 of 2.1 nM. `CN1C(=O)C2(CCN(CCOc3ccc(C(=O)N4CCS(=O)(=O)CC4)c(C(F)(F)F)c3)CC2)c2cc(C#N)ccc21` [Compound 261, 1′-{2-[4-(1,1-dioxo-1λ^6-thiomorpholine-4-carbonyl)-3-(trifluoromethyl)phenoxy]ethyl}-1-methyl-2-oxo-1,2-dihydrospiro[indole-3,4′-piperidine]-5-carbonitrile] was tested, and the EC50 was 2.29 nM. With `C[C@]1(O)C[C@@H](N2C(=O)OCc3cc(OCCN4CCC5(CC4)C(=O)Nc4ccc(Cl)cc45)cnc32)C1` [Compound 289, 5-chloro-1′-[2-({2-oxo-1-[(cis)-3-hydroxy-3-methylcyclobutyl]-1H,2H,4H-pyrido[2,3-d][1,3]oxazin-6-yl]oxy)ethyl]-1,2-dihydrospiro[indole-3,4′-piperidin]-2-one] the EC50 was 2.22 nM. Work on `C[C@]1(O)C[C@@H](N2C(=O)CCc3cc(OCCN4CCC5(CC4)C(=O)Nc4ccc(Cl)cc45)cnc32)C1` [Compound 275, 5-chloro-1′-[2-({7-oxo-8-[(cis)-3-hydroxy-3-methylcyclobutyl]-5,6,7,8-tetrahydro-1,8-naphthyridin-3-yl}oxy)ethyl]-1,2-dihydrospiro[indole-3,4′-piperidin]-2-one] yielded an EC50 of 3.89 nM.

Same assay, conditions: differentiated human podocytes, doxycycline-induced APOL1 G2, CellTiter-Glo; geometric mean of at least 2 runs; † = single run
Work on `CC(O)c1ncc(OCCN2CCC3(CC2)C(=O)Nc2ccc(C(F)F)cc23)cc1C(F)(F)F` (single isomer, unassigned) [Compound 288, 5-(difluoromethyl)-1′-[2-({6-[(1R) or (1S)-1-hydroxyethyl]-5-(trifluoromethyl)pyridin-3-yl}oxy)ethyl]-1,2-dihydrospiro[indole-3,4′-piperidin]-2-one] yielded an EC50 of 19.5 nM.
